Measured values published in patent publication US20260070945A1, “MACROCYCLIC IMMUNOMODULATORS” (Bristol-Myers Squibb Company, priority 2022, published 2026).
Where a SMILES comes first, the peptide text is derived from it. Bridges are numbered along the chain shown (N, C = ends). [ ]: non-standard residue; d: D form. The star is where a group is joined. ξ: configuration not given here. Phe(4-CH2CH2COOH) = N[C@@H](Cc1ccc(CCC(=O)O)cc1)C(=O)O; Phe(3-CF3) = N[C@@H](Cc1cccc(C(F)(F)F)c1)C(=O)O; Phe(4-CF3) = N[C@@H](Cc1ccc(C(F)(F)F)cc1)C(=O)O; Phe(4-COOH) = N[C@@H](Cc1ccc(C(=O)O)cc1)C(=O)O; Bip = N[C@@H](Cc1ccc(-c2ccccc2)cc1)C(=O)O; Phe(3-F) = N[C@@H](Cc1cccc(F)c1)C(=O)O; Phe(3-Me) = Cc1cccc(C[C@H](N)C(=O)O)c1; Val(3-OH) = CC(C)(O)[C@H](N)C(=O)O; Cha = N[C@@H](CC1CCCCC1)C(=O)O; Cit = NC(=O)NCCC[C@H](N)C(=O)O; Ile(3ξ) = CCC(C)[C@H](N)C(=O)O; Carboxymethyl = O=C(O)C*; NMeA = CN[C@@H](C)C(=O)O; Aun = NCCCCCCCCCCC(=O)O; Dab = NCC[C@H](N)C(=O)O; Nva = CCC[C@H](N)C(=O)O; AEEA = NCCOCCOCC(=O)O

These molecules were tested against T1, PD-1/PD-L1 interaction (PE-labeled human PD-L1-Ig binding to Jurkat cell line over-expressing human PD-1) (Homo sapiens, UniProt Q15116) (assay: Jurkat-PD-1 Cell Binding High-Content Screening Assay (CBA)). Details: PE-labeled PD-L1-Ig 20 nM final, Jurkat-hPD-1 cells; read-out: Jurkat HPD1 PDL1 IC50.
T1 construct: expressed in transfected cells; host or cells: Jurkat
T1 sequence (Q15116 25-288): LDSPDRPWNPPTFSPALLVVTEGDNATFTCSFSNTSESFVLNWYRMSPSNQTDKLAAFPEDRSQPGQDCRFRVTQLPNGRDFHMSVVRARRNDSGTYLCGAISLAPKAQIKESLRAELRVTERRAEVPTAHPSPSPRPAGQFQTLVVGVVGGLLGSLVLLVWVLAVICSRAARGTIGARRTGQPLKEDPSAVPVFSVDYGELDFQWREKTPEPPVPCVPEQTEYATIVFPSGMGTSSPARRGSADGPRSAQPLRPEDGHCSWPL
Outline: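 Read-out: high-content imaging of cell-bound PE fluorescence, with Hoechst 33342 nuclear counterstain after paraformaldehyde fixation. Before labeled ligand (20 nM final, 1 h) was added, compound sat on the cells for 2 h at 37 °C in DMEM/10% FCS.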

SMILES | IC50 [nM]
CCC(C)[C@@H]1NC(=O)[C@H](Cc2ccc(-c3ccccc3)cc2)NC(=O)[C@H](Cc2ccc(C(F)(F)F)cc2)NC(=O)[C@H](Cc2cccc(F)c2)NC(=O)[C@H](CC(=O)O)NC(=O)[C@H](Cc2ccc(C(=O)O)cc2)NC(=O)[C@H](Cc2cnc[nH]2)NC(=O)CSC[C@@H](C(=O)N[C@@H](CCN)C(=O)NCCCCCCCCCCC(=O)O)NC(=O)[C@H](CO)NC(=O)[C@H](C(C)(C)O)NC(=O)[C@H](CC2CCCCC2)NC(=O)[C@H](CCN)NC(=O)[C@@H](CC(C)C)NC(=O)[C@H](C)N(C)C1=O (stereo partly drawn) [Example 2586] ({CH2CO}-H[Phe(4-COOH)]D[Phe(3-F)][Phe(4-CF3)][Bip][Ile(3ξ)][NMeA][dL][Dab][Cha][Val(3-OH)]SC[Dab][Aun]-OH; thioether N-14) | 14.1
CCC(C)[C@@H]1NC(=O)[C@H](Cc2ccc(-c3ccccc3)cc2)NC(=O)[C@H](C(C)C)NC(=O)[C@H](Cc2c[nH]c3ccccc23)NC(=O)[C@H](CC(=O)O)NC(=O)[C@H](Cc2ccc(OCC(=O)O)cc2)NC(=O)[C@H](Cc2ccc(OCC(=O)O)cc2)NC(=O)CSC[C@@H](C(=O)N[C@@H](CCN)C(=O)NCCOCCOCC(=O)NCCCCCCCCCCC(=O)O)NC(=O)[C@H](CCCNC(N)=O)NC(=O)[C@H](C(C)(C)O)NC(=O)[C@H](CC2CCCCC2)NC(=O)[C@H](Cc2cnc[nH]2)NC(=O)[C@@H](CC(C)C)NC(=O)[C@H](C)N(C)C1=O (stereo partly drawn) [Example 2587] ({CH2CO}-Y(Carboxymethyl)Y(Carboxymethyl)DWV[Bip][Ile(3ξ)][NMeA][dL]H[Cha][Val(3-OH)][Cit]C[Dab][AEEA][Aun]-OH; thioether N-14) | 13.5
CCC(C)[C@@H]1NC(=O)[C@H](Cc2ccc(-c3ccccc3)cc2)NC(=O)[C@H](C(C)C)NC(=O)[C@H](Cc2c[nH]c3ccccc23)NC(=O)[C@H](CC(=O)O)NC(=O)[C@H](Cc2ccc(OCC(=O)O)cc2)NC(=O)[C@H](Cc2ccc(OCC(=O)O)cc2)NC(=O)CSC[C@@H](C(=O)N[C@@H](CCN)C(=O)NCCOCCOCC(=O)NCCCCCCCCCCC(=O)O)NC(=O)[C@H](CCCCNC(C)=O)NC(=O)[C@H](C(C)(C)O)NC(=O)[C@H](CC2CCCCC2)NC(=O)[C@H](Cc2cnc[nH]2)NC(=O)[C@@H](CC(C)C)NC(=O)[C@H](C)N(C)C1=O (stereo partly drawn) [Example 2588] ({CH2CO}-Y(Carboxymethyl)Y(Carboxymethyl)DWV[Bip][Ile(3ξ)][NMeA][dL]H[Cha][Val(3-OH)]K(Ac)C[Dab][AEEA][Aun]-OH; thioether N-14) | 4.2
CCC[C@@H]1NC(=O)[C@H](C(C)(C)O)NC(=O)[C@H](CC2CCCCC2)NC(=O)[C@H](Cc2cnc[nH]2)NC(=O)[C@@H](CC(C)C)NC(=O)[C@H](C)N(C)C(=O)[C@H](C(C)CC)NC(=O)[C@H](Cc2ccc(-c3ccccc3)cc2)NC(=O)[C@H](C(C)C)NC(=O)[C@H](Cc2c[nH]c3ccccc23)NC(=O)[C@H](CC(=O)O)NC(=O)[C@H](Cc2ccc(OCC(=O)O)cc2)NC(=O)[C@H](Cc2ccc(OCC(=O)O)cc2)NC(=O)CSC[C@@H](C(=O)N[C@@H](CCN)C(=O)NCCOCCOCC(=O)NCCCCCCCCCCC(=O)O)NC1=O (stereo partly drawn) [Example 2589] ({CH2CO}-Y(Carboxymethyl)Y(Carboxymethyl)DWV[Bip][Ile(3ξ)][NMeA][dL]H[Cha][Val(3-OH)][Nva]C[Dab][AEEA][Aun]-OH; thioether N-14) | 35.6
CCC(C)[C@@H]1NC(=O)[C@H](Cc2ccc(-c3ccccc3)cc2)NC(=O)[C@H](Cc2ccc(C(F)(F)F)cc2)NC(=O)[C@H](Cc2c[nH]c3ccccc23)NC(=O)[C@H](CC(=O)O)NC(=O)[C@H](Cc2ccc(OCC(=O)O)cc2)NC(=O)[C@H](Cc2cnc[nH]2)NC(=O)CSC[C@@H](C(=O)N[C@@H](CCN)C(=O)NCCOCCOCC(=O)NCCCCCCCCCCC(=O)O)NC(=O)[C@H](CCC(=O)O)NC(=O)[C@H](C(C)(C)O)NC(=O)[C@H](CC2CCCCC2)NC(=O)[C@H](CCN)NC(=O)[C@@H](CC(C)C)NC(=O)[C@H](C)N(C)C1=O (stereo partly drawn) [Example 2590] ({CH2CO}-HY(Carboxymethyl)DW[Phe(4-CF3)][Bip][Ile(3ξ)][NMeA][dL][Dab][Cha][Val(3-OH)]EC[Dab][AEEA][Aun]-OH; thioether N-14) | 185
CCC(C)[C@@H]1NC(=O)[C@H](Cc2ccc(-c3ccccc3)cc2)NC(=O)[C@H](C(C)C)NC(=O)[C@H](Cc2c[nH]c3ccccc23)NC(=O)[C@H](CC(=O)O)NC(=O)[C@H](Cc2ccc(OCC(=O)O)cc2)NC(=O)[C@H](Cc2cnc[nH]2)NC(=O)CSC[C@@H](C(=O)N[C@@H](CCN)C(=O)NCCOCCOCC(=O)NCCCCCCCCCCC(=O)O)NC(=O)[C@H](CCC(=O)O)NC(=O)[C@H](C(C)(C)O)NC(=O)[C@H](CC2CCCCC2)NC(=O)[C@H](CCN)NC(=O)[C@@H](CC(C)C)NC(=O)[C@H](C)N(C)C1=O (stereo partly drawn) [Example 2591] ({CH2CO}-HY(Carboxymethyl)DWV[Bip][Ile(3ξ)][NMeA][dL][Dab][Cha][Val(3-OH)]EC[Dab][AEEA][Aun]-OH; thioether N-14) | 3.1
CCC(C)[C@@H]1NC(=O)[C@H](Cc2ccc(-c3ccccc3)cc2)NC(=O)[C@H](Cc2ccc(C(F)(F)F)cc2)NC(=O)[C@H](Cc2cccc(F)c2)NC(=O)[C@H](CC(=O)O)NC(=O)[C@H](Cc2ccc(OCC(=O)O)cc2)NC(=O)[C@H](Cc2cnc[nH]2)NC(=O)CSC[C@@H](C(=O)N[C@@H](CCN)C(=O)NCCOCCOCC(=O)NCCCCCCCCCCC(=O)O)NC(=O)[C@H](CCC(=O)O)NC(=O)[C@H](C(C)C)NC(=O)[C@H](CC2CCCCC2)NC(=O)[C@H](CCN)NC(=O)[C@@H](CC(C)C)NC(=O)[C@H](C)N(C)C1=O (stereo partly drawn) [Example 2592] ({CH2CO}-HY(Carboxymethyl)D[Phe(3-F)][Phe(4-CF3)][Bip][Ile(3ξ)][NMeA][dL][Dab][Cha]VEC[Dab][AEEA][Aun]-OH; thioether N-14) | 89.6
CC(=O)NCCCC[C@@H]1NC(=O)[C@H](C(C)(C)O)NC(=O)[C@H](CC2CCCCC2)NC(=O)[C@H](CCN)NC(=O)[C@@H](CC(C)C)NC(=O)[C@H](C)N(C)C(=O)[C@H](CCC(N)=O)NC(=O)[C@H](Cc2ccc(-c3ccccc3)cc2)NC(=O)[C@H](Cc2ccc(C(F)(F)F)cc2)NC(=O)[C@H](Cc2cccc(C)c2)NC(=O)[C@H](CC(=O)O)NC(=O)[C@H](Cc2ccc(OCC(=O)O)cc2)NC(=O)[C@H](Cc2ccc(OCC(=O)O)cc2)NC(=O)CSC[C@@H](C(=O)N[C@@H](CCN)C(=O)NCCOCCOCC(=O)NCCCCCCCCCCC(=O)O)NC1=O [Example 2593] ({CH2CO}-Y(Carboxymethyl)Y(Carboxymethyl)D[Phe(3-Me)][Phe(4-CF3)][Bip]Q[NMeA][dL][Dab][Cha][Val(3-OH)]K(Ac)C[Dab][AEEA][Aun]-OH; thioether N-14) | 9
CC(=O)NCCCC[C@@H]1NC(=O)[C@H](C(C)(C)O)NC(=O)[C@H](CC2CCCCC2)NC(=O)[C@H](CCN)NC(=O)[C@@H](CC(C)C)NC(=O)[C@H](C)N(C)C(=O)[C@H](Cc2ccc(C(F)(F)F)cc2)NC(=O)[C@H](Cc2ccc(-c3ccccc3)cc2)NC(=O)[C@H](Cc2ccc(C(=O)O)cc2)NC(=O)[C@H](Cc2cccc(C)c2)NC(=O)[C@H](CC(=O)O)NC(=O)[C@H](Cc2ccc(OCC(=O)O)cc2)NC(=O)[C@H](Cc2ccc(OCC(=O)O)cc2)NC(=O)CSC[C@@H](C(=O)N[C@@H](CCN)C(=O)NCCOCCOCC(=O)NCCCCCCCCCCC(=O)O)NC1=O [Example 2594] ({CH2CO}-Y(Carboxymethyl)Y(Carboxymethyl)D[Phe(3-Me)][Phe(4-COOH)][Bip][Phe(4-CF3)][NMeA][dL][Dab][Cha][Val(3-OH)]K(Ac)C[Dab][AEEA][Aun]-OH; thioether N-14) | 5.7
CC(=O)NCCCC[C@@H]1NC(=O)[C@H](C(C)(C)O)NC(=O)[C@H](CC2CCCCC2)NC(=O)[C@H](CCN)NC(=O)[C@@H](CC(C)C)NC(=O)[C@H](C)N(C)C(=O)[C@H](CCC(N)=O)NC(=O)[C@H](Cc2ccc(-c3ccccc3)cc2)NC(=O)[C@H](Cc2ccc(C(=O)O)cc2)NC(=O)[C@H](Cc2cccc(C)c2)NC(=O)[C@H](CC(=O)O)NC(=O)[C@H](Cc2ccc(C(F)(F)F)cc2)NC(=O)[C@H](Cc2ccc(OCC(=O)O)cc2)NC(=O)CSC[C@@H](C(=O)N[C@@H](CCN)C(=O)NCCOCCOCC(=O)NCCCCCCCCCCC(=O)O)NC1=O [Example 2595] ({CH2CO}-Y(Carboxymethyl)[Phe(4-CF3)]D[Phe(3-Me)][Phe(4-COOH)][Bip]Q[NMeA][dL][Dab][Cha][Val(3-OH)]K(Ac)C[Dab][AEEA][Aun]-OH; thioether N-14) | 11.7
CC(=O)NCCCC[C@@H]1NC(=O)[C@H](C(C)(C)O)NC(=O)[C@H](CC2CCCCC2)NC(=O)[C@H](CCN)NC(=O)[C@@H](CC(C)C)NC(=O)[C@H](C)N(C)C(=O)[C@H](CCC(N)=O)NC(=O)[C@H](Cc2ccc(-c3ccccc3)cc2)NC(=O)[C@H](Cc2ccc(C(=O)O)cc2)NC(=O)[C@H](Cc2cccc(C)c2)NC(=O)[C@H](CC(=O)O)NC(=O)[C@H](Cc2ccc(OCC(=O)O)cc2)NC(=O)[C@H](Cc2ccc(C(F)(F)F)cc2)NC(=O)CSC[C@@H](C(=O)N[C@@H](CCN)C(=O)NCCOCCOCC(=O)NCCCCCCCCCCC(=O)O)NC1=O [Example 2596] ({CH2CO}-[Phe(4-CF3)]Y(Carboxymethyl)D[Phe(3-Me)][Phe(4-COOH)][Bip]Q[NMeA][dL][Dab][Cha][Val(3-OH)]K(Ac)C[Dab][AEEA][Aun]-OH; thioether N-14) | 2.7
CC(=O)NCCCC[C@@H]1NC(=O)[C@H](C(C)(C)O)NC(=O)[C@H](CC2CCCCC2)NC(=O)[C@H](CCN)NC(=O)[C@@H](CC(C)C)NC(=O)[C@H](C)N(C)C(=O)[C@H](CCC(N)=O)NC(=O)[C@H](Cc2ccc(-c3ccccc3)cc2)NC(=O)[C@H](Cc2ccc(CCC(=O)O)cc2)NC(=O)[C@H](Cc2cccc(C(F)(F)F)c2)NC(=O)[C@H](CC(=O)O)NC(=O)[C@H](Cc2ccc(OCC(=O)O)cc2)NC(=O)[C@H](Cc2ccc(OCC(=O)O)cc2)NC(=O)CSC[C@@H](C(=O)N[C@@H](CCN)C(=O)NCCOCCOCC(=O)NCCCCCCCCCCC(=O)O)NC1=O [Example 2597] ({CH2CO}-Y(Carboxymethyl)Y(Carboxymethyl)D[Phe(3-CF3)][Phe(4-CH2CH2COOH)][Bip]Q[NMeA][dL][Dab][Cha][Val(3-OH)]K(Ac)C[Dab][AEEA][Aun]-OH; thioether N-14) | 3.3
